From ChEMBL document CHEMBL1212926, “Design of potent inhibitors of human RAD51 recombinase based on BRC motifs of BRCA2 protein: modeling and experimental validation of a chimera peptide” (J Med Chem, 2010)
Active and inactive are the calls of the source. The rule behind the calls is not given here. Where a SMILES comes first, the peptide text is derived from it.

What was measured:
[1] = target: T1, DNA repair protein RAD51 homolog 1 (Homo sapiens, UniProt Q06609); assay: Inhibition of human RAD51 assessed as concentration required for half dissociation of protein/single-stranded DNA complex formation by fluorescence polarimetry
T1 sequence (Q06609 whole entry): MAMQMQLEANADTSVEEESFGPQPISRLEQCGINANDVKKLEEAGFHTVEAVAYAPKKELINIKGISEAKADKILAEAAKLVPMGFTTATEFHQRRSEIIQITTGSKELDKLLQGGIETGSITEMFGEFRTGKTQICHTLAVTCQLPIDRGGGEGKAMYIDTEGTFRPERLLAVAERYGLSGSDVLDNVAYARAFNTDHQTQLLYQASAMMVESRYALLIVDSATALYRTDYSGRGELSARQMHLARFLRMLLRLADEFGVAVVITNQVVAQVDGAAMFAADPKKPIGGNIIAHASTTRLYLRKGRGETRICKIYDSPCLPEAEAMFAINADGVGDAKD

[2] = target: T2, DNA repair protein RAD51 homolog 1 (Homo sapiens) (UniProt Q06609); assay: Binding affinity to human RAD51 by isothermal titration calorimetry
T2 sequence (whole entry): T1 sequence (Q06609 whole entry)

[3] = target: T1, DNA repair protein RAD51 homolog 1; assay: Inhibition of human RAD51 assessed as dissociation of protein/single-stranded poly-(d-epsilonA) complex formation by fluorescence polarimetry
[4] = target: T1, DNA repair protein RAD51 homolog 1; assay: Inhibition of human RAD51 assessed as dissociation of protein/single-stranded oligo(AGT)12 complex formation by fluorescence polarimetry
[5] = target: T2, DNA repair protein RAD51 homolog 1 (Homo sapiens); assay: Inhibition of human RAD51-mediated 58-mer single-stranded DNA strand exchange activity at 5 to 15 uM after 1 hr by PAGE
[6] = target: T2, DNA repair protein RAD51 homolog 1 (Homo sapiens); assay: Binding affinity to human RAD51 at 40 uM by circular dichroism assay

Structure (SMILES): CC[C@H](C)[C@H](NC(=O)[C@H](CCCCN)NC(=O)[C@@H](NC(=O)[C@H](CCCCN)NC(=O)[C@H](CCCCN)NC(=O)CNC(=O)[C@H](CO)NC(=O)[C@H](C)NC(=O)[C@@H](NC(=O)[C@H](Cc1ccc(O)cc1)NC(=O)[C@H](Cc1ccccc1)NC(=O)CN)[C@@H](C)O)C(C)C)C(=O)N[C@@H](C)C(=O)N[C@@H](CCCCN)C(=O)N[C@@H](CCC(=O)O)C(=O)N[C@@H](CO)C(=O)N[C@@H](CC(C)C)C(=O)N[C@@H](CC(=O)O)C(=O)N[C@@H](CCCCN)C(=O)N[C@H](C(=O)N[C@@H](CCCCN)C(=O)N[C@@H](CC(N)=O)C(=O)N[C@@H](CC(C)C)C(=O)N[C@@H](Cc1ccccc1)C(=O)O)C(C)C
- Ki [1]: 6000 nM
- K [2]: 3.8 ×10⁵ /M
- IC50 [3]: 7000 nM
- IC50 [4]: 2700 nM
- inhibition [5]: Active
- Activity [6]: Active

Structure (SMILES): CC[C@H](C)[C@H](NC(=O)[C@H](CCCCN)NC(=O)[C@@H](NC(=O)[C@H](CCCCN)NC(=O)[C@H](CCCCN)NC(=O)CNC(=O)[C@H](CO)NC(=O)[C@H](C)NC(=O)[C@@H](NC(=O)[C@@H](N)Cc1cnc[nH]1)[C@@H](C)O)C(C)C)C(=O)N[C@@H](C)C(=O)N[C@@H](CCCCN)C(=O)N[C@@H](CCC(=O)O)C(=O)N[C@@H](CO)C(=O)N[C@@H](CC(C)C)C(=O)N[C@@H](CC(=O)O)C(=O)N[C@@H](CCCCN)C(=O)N[C@H](C(=O)N[C@@H](CCCCN)C(=O)N[C@@H](CC(N)=O)C(=O)N[C@@H](CC(C)C)C(=O)N[C@@H](Cc1ccccc1)C(=O)N[C@@H](CC(=O)O)C(=O)N[C@@H](CCC(=O)O)C(=O)O)C(C)C (H-HTASGKKVKIAKESLDKVKNLFDE-OH)
- Activity [6]: Active

Structure (SMILES): CC[C@H](C)[C@H](NC(=O)[C@H](CCCCN)NC(=O)[C@@H](NC(=O)[C@H](CCCCN)NC(=O)[C@H](CCCCN)NC(=O)CNC(=O)[C@H](CO)NC(=O)[C@H](CO)NC(=O)[C@@H](NC(=O)[C@H](Cc1cnc[nH]1)NC(=O)[C@H](Cc1ccccc1)NC(=O)CN)[C@@H](C)O)C(C)C)C(=O)N[C@@H](C)C(=O)N[C@@H](CCCCN)C(=O)N[C@@H](CCC(=O)O)C(=O)N[C@@H](CO)C(=O)N[C@@H](CC(C)C)C(=O)N[C@@H](CC(=O)O)C(=O)N[C@@H](CCCCN)C(=O)N[C@H](C(=O)N[C@@H](CCCCN)C(=O)N[C@@H](CC(N)=O)C(=O)N[C@@H](CC(C)C)C(=O)N[C@@H](Cc1ccccc1)C(=O)O)C(C)C
- K [2]: < 0.1 ×10⁵ /M
- inhibition [5]: Active
- Activity [6]: Active

Structure (SMILES): CC[C@H](C)[C@H](NC(=O)[C@H](CCCCN)NC(=O)[C@@H](NC(=O)[C@H](CCCCN)NC(=O)[C@H](CCCCN)NC(=O)CNC(=O)[C@H](CO)NC(=O)[C@H](C)NC(=O)[C@@H](NC(=O)[C@H](Cc1cnc[nH]1)NC(=O)[C@H](Cc1ccccc1)NC(=O)CN)[C@@H](C)O)C(C)C)C(=O)N[C@@H](C)C(=O)N[C@@H](CCCCN)C(=O)N[C@@H](CCC(=O)O)C(=O)N[C@@H](CO)C(=O)N[C@@H](CC(C)C)C(=O)N[C@@H](CC(=O)O)C(=O)N[C@@H](CCCCN)C(=O)N[C@H](C(=O)N[C@@H](CCCCN)C(=O)N[C@@H](CC(N)=O)C(=O)N[C@@H](Cc1ccccc1)C(=O)N[C@@H](Cc1ccccc1)C(=O)O)C(C)C
- Ki [1]: 4200 nM
- K [2]: 7.3 ×10⁵ /M
- IC50 [3]: 5000 nM
- IC50 [4]: 2600 nM
- inhibition [5]: Active
- Activity [6]: Active

Structure (SMILES): CC[C@H](C)[C@H](NC(=O)[C@H](CCCCN)NC(=O)[C@@H](NC(=O)[C@H](CCCCN)NC(=O)[C@H](CCCCN)NC(=O)CNC(=O)[C@H](CO)NC(=O)[C@H](C)NC(=O)[C@@H](NC(=O)[C@H](Cc1ccc(O)cc1)NC(=O)[C@H](Cc1ccccc1)NC(=O)CN)[C@@H](C)O)C(C)C)C(=O)N[C@@H](CO)C(=O)N[C@@H](CCCCN)C(=O)N[C@@H](CCC(=O)O)C(=O)N[C@@H](CO)C(=O)N[C@@H](CC(C)C)C(=O)N[C@@H](CC(=O)O)C(=O)N[C@@H](CCCCN)C(=O)N[C@H](C(=O)N[C@@H](CCCCN)C(=O)N[C@@H](CC(N)=O)C(=O)N[C@@H](Cc1ccccc1)C(=O)N[C@@H](Cc1ccccc1)C(=O)O)C(C)C (H-GFYTASGKKVKISKESLDKVKNFF-OH)
- Ki [1]: 750 nM
- IC50 [3]: 1500 nM
- IC50 [4]: 1050 nM
- inhibition [5]: Active

Structure (SMILES): CC[C@H](C)[C@H](NC(=O)[C@H](CCCCN)NC(=O)[C@@H](NC(=O)[C@H](CCCCN)NC(=O)[C@H](CCCCN)NC(=O)CNC(=O)[C@H](CO)NC(=O)[C@H](C)NC(=O)[C@@H](NC(=O)[C@H](Cc1cnc[nH]1)NC(=O)[C@H](Cc1ccccc1)NC(=O)CN)[C@@H](C)O)C(C)C)C(=O)N[C@@H](CO)C(=O)N[C@@H](CCCCN)C(=O)N[C@@H](CCC(=O)O)C(=O)N[C@@H](CO)C(=O)N[C@@H](CC(C)C)C(=O)N[C@@H](CC(=O)O)C(=O)N[C@@H](CCCCN)C(=O)N[C@H](C(=O)N[C@@H](CCCCN)C(=O)N[C@@H](CC(N)=O)C(=O)N[C@@H](CC(C)C)C(=O)N[C@@H](Cc1ccccc1)C(=O)O)C(C)C
- Ki [1]: 1800 nM
- K [2]: 5.2 ×10⁵ /M
- IC50 [3]: 2500 nM
- IC50 [4]: 2000 nM
- inhibition [5]: Active
- Activity [6]: Active
